Earlier results, collected in patent US8859624B2, “Stable rasagiline composition” (Chongqing Pharmaceutical Research Institute Co., Ltd., priority 2009, dated 2014).

Conditions: taking food after oral administration

decrease of blood drug concentration: 60%
Structure (SMILES): C#CCN[C@@H]1CCc2ccccc21 [Rasagiline, rasagiline]
